Source: PubChem BioAssay (NCI)
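Dose response: 5 concentrations. Exposure: 48 h. Format: 96-well plates. Endpoint: linear interpolation; highest concentration if not reached. TGI: total growth inhibition.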

Tests used:
Assay in all cases: NCI tumour cell line growth inhibition, 48 h
SF-539 CNS = system: SF-539 CNS
SN12C renal = system: SN12C renal
HCC-2998 colon = system: HCC-2998 colon
SK-MEL-5 melanoma = system: SK-MEL-5 melanoma
U251 CNS = system: U251 CNS
UACC-257 melanoma = system: UACC-257 melanoma
NCI/ADR-RES ovarian = system: NCI/ADR-RES ovarian
HOP-92 NSCLC = system: HOP-92 NSCLC
K-562 leukemia = system: K-562 leukemia
HL-60(TB) leukemia = system: HL-60(TB) leukemia
HCT-15 colon = system: HCT-15 colon
UACC-62 melanoma = system: UACC-62 melanoma
SF-268 CNS = system: SF-268 CNS
SF-295 CNS = system: SF-295 CNS
MDA-MB-231 breast = system: MDA-MB-231 breast
OVCAR-3 ovarian = system: OVCAR-3 ovarian
HS 578T breast = system: HS 578T breast
HT29 colon = system: HT29 colon
CAKI-1 renal = system: CAKI-1 renal
UO-31 renal = system: UO-31 renal
PC-3 prostate = system: PC-3 prostate
SR leukemia = system: SR leukemia
DU-145 prostate = system: DU-145 prostate
OVCAR-5 ovarian = system: OVCAR-5 ovarian
OVCAR-4 ovarian = system: OVCAR-4 ovarian
LOX IMVI melanoma = system: LOX IMVI melanoma
MCF7 breast = system: MCF7 breast
SK-OV-3 ovarian = system: SK-OV-3 ovarian
BT-549 breast = system: BT-549 breast
A498 renal = system: A498 renal
T-47D breast = system: T-47D breast
NCI-H23 lung = system: NCI-H23 lung
TK-10 renal = system: TK-10 renal
SK-MEL-2 melanoma = system: SK-MEL-2 melanoma
HOP-62 NSCLC = system: HOP-62 NSCLC
HCT-116 colon = system: HCT-116 colon
NCI-H226 lung = system: NCI-H226 lung
NCI-H460 lung = system: NCI-H460 lung
MDA-MB-435 = system: MDA-MB-435
A549 NSCLC = system: A549 NSCLC
KM12 colon = system: KM12 colon
SK-MEL-28 melanoma = system: SK-MEL-28 melanoma
MOLT-4 leukemia = system: MOLT-4 leukemia
RPMI-8226 leukemia = system: RPMI-8226 leukemia
IGROV1 ovarian = system: IGROV1 ovarian
M14 melanoma = system: M14 melanoma
MDA-N = system: MDA-N
RXF 393 renal = system: RXF 393 renal
NCI-H522 lung = system: NCI-H522 lung
SW-620 colon = system: SW-620 colon
COLO 205 colon = system: COLO 205 colon
OVCAR-8 ovarian = system: OVCAR-8 ovarian
ACHN renal = system: ACHN renal
CCRF-CEM leukemia = system: CCRF-CEM leukemia
SNB-19 CNS = system: SNB-19 CNS
EKVX NSCLC = system: EKVX NSCLC
786-0 renal = system: 786-0 renal
SNB-75 CNS = system: SNB-75 CNS
MALME-3M melanoma = system: MALME-3M melanoma

`CC(C)(C)OC(=O)/C=C/[C@@H](CCC(=O)/C=C/[C@H](/C=C\CCCC(=O)O)NC1(c2ccccc2)c2ccccc2-c2ccccc21)O[Si](C)(C)C(C)(C)C` gave a TGI (SF-539 CNS) of 36.6 µM, a TGI (SN12C renal) of 32.4 µM and a TGI (HCC-2998 colon) of 32.5 µM. The TGI (SK-MEL-5 melanoma) was 36.8 µM, the TGI (U251 CNS) was 30.9 µM and the TGI (UACC-257 melanoma) was 34.2 µM. The TGI (NCI/ADR-RES ovarian) was 32.6 µM, the TGI (HOP-92 NSCLC) was 16 µM and the TGI (K-562 leukemia) was > 100 µM. The TGI (HL-60(TB) leukemia) was 86.1 µM, the TGI (HCT-15 colon) was 30.2 µM and the TGI (UACC-62 melanoma) was 29.6 µM. The TGI (SF-268 CNS) was 35.2 µM, the TGI (SF-295 CNS) was 33.5 µM and the TGI (MDA-MB-231 breast) was 28.4 µM. It also gave a TGI (OVCAR-3 ovarian) of 32.9 µM, a TGI (HS 578T breast) of 77.9 µM and a TGI (HT29 colon) of 30.1 µM. It also gave a TGI (CAKI-1 renal) of 67.8 µM, a TGI (UO-31 renal) of 29.8 µM and a TGI (PC-3 prostate) of 36.2 µM. The TGI (SR leukemia) was > 100 µM, the TGI (DU-145 prostate) was 32.6 µM and the TGI (OVCAR-5 ovarian) was 43.6 µM. The TGI (OVCAR-4 ovarian) was 53.9 µM, the TGI (LOX IMVI melanoma) was 27.6 µM and the TGI (MCF7 breast) was 38.7 µM. For the same compound, the TGI (SK-OV-3 ovarian) was > 100 µM, the TGI (BT-549 breast) was 33 µM and the TGI (A498 renal) was 34 µM. The TGI (T-47D breast) was 55.6 µM, the TGI (NCI-H23 lung) was 36.6 µM and the TGI (TK-10 renal) was 52 µM. The TGI (SK-MEL-2 melanoma) was 30.1 µM, the TGI (HOP-62 NSCLC) was 36.5 µM and the TGI (HCT-116 colon) was 30.2 µM. For the same compound, the TGI (NCI-H226 lung) was 40.3 µM, the TGI (NCI-H460 lung) was 34.7 µM and the TGI (MDA-MB-435) was 48.7 µM. For the same compound, the TGI (A549 NSCLC) was 37.2 µM, the TGI (KM12 colon) was 43.5 µM and the TGI (SK-MEL-28 melanoma) was 69.6 µM. The TGI (MOLT-4 leukemia) was > 100 µM, the TGI (RPMI-8226 leukemia) was 85.1 µM and the TGI (IGROV1 ovarian) was 35.5 µM. The TGI (M14 melanoma) was 29.4 µM, the TGI (MDA-N) was 47.2 µM and the TGI (RXF 393 renal) was 24.5 µM. The TGI (NCI-H522 lung) was 34.6 µM, the TGI (SW-620 colon) was 81.6 µM and the TGI (COLO 205 colon) was 59 µM. The TGI (OVCAR-8 ovarian) was 55 µM, the TGI (ACHN renal) was 36.3 µM and the TGI (CCRF-CEM leukemia) was > 100 µM. For the same compound, the TGI (SNB-19 CNS) was 41.8 µM, the TGI (EKVX NSCLC) was 45.9 µM and the TGI (786-0 renal) was 33.3 µM.

Work on `O=Cc1ccc(Oc2c3ccccc3nc3ccccc23)cc1` yielded a TGI (SF-539 CNS) of 4.12 µM, a TGI (SNB-75 CNS) of 29.5 µM and a TGI (SN12C renal) of 11.1 µM. The TGI (HCC-2998 colon) was 28.6 µM, the TGI (SK-MEL-5 melanoma) was 24.2 µM and the TGI (U251 CNS) was 21.9 µM. For the same compound, the TGI (UACC-257 melanoma) was 4.89 µM, the TGI (NCI/ADR-RES ovarian) was > 100 µM and the TGI (HOP-92 NSCLC) was 17.7 µM. It also gave a TGI (HCT-15 colon) of 19.5 µM, a TGI (UACC-62 melanoma) of 2.74 µM and a TGI (SF-268 CNS) of 17.6 µM. For the same compound, the TGI (SF-295 CNS) was 55.4 µM, the TGI (MDA-MB-231 breast) was 13.3 µM and the TGI (OVCAR-3 ovarian) was 26 µM. The TGI (HS 578T breast) was 7.91 µM, the TGI (HT29 colon) was 4.38 µM and the TGI (CAKI-1 renal) was 22.3 µM. The TGI (PC-3 prostate) was 20.1 µM, the TGI (SR leukemia) was 7.19 µM and the TGI (DU-145 prostate) was 13.7 µM. The TGI (OVCAR-5 ovarian) was 16.7 µM, the TGI (OVCAR-4 ovarian) was 16.3 µM and the TGI (LOX IMVI melanoma) was 11.7 µM. The TGI (MCF7 breast) was 45.4 µM, the TGI (SK-OV-3 ovarian) was 21.6 µM and the TGI (BT-549 breast) was 37.4 µM. It also gave a TGI (A498 renal) of 14.5 µM, a TGI (T-47D breast) of 12.5 µM and a TGI (TK-10 renal) of 19.5 µM. For the same compound, the TGI (HOP-62 NSCLC) was 33.9 µM, the TGI (HCT-116 colon) was 4.9 µM and the TGI (NCI-H226 lung) was 20.2 µM. It also gave a TGI (NCI-H460 lung) of 33.8 µM, a TGI (MDA-MB-435) of 6.85 µM and a TGI (A549 NSCLC) of 49 µM. The TGI (KM12 colon) was 58.7 µM, the TGI (SK-MEL-28 melanoma) was 25.6 µM and the TGI (MALME-3M melanoma) was 30 µM. For the same compound, the TGI (MOLT-4 leukemia) was 6.08 µM, the TGI (RPMI-8226 leukemia) was 5.95 µM and the TGI (M14 melanoma) was 10.7 µM. For the same compound, the TGI (MDA-N) was 13.8 µM, the TGI (RXF 393 renal) was 21.5 µM and the TGI (COLO 205 colon) was 10.1 µM. For the same compound, the TGI (OVCAR-8 ovarian) was 21 µM, the TGI (ACHN renal) was 14 µM and the TGI (CCRF-CEM leukemia) was 6.72 µM. It also gave a TGI (SNB-19 CNS) of 36.4 µM, a TGI (EKVX NSCLC) of 40.2 µM and a TGI (786-0 renal) of 6.16 µM.
